Laboratory results as given in PMC7828495, “Synthesis, Stability, and Antidiabetic Activity Evaluation of (−)-Epigallocatechin Gallate (EGCG) Palmitate Derived from Natural Tea Polyphenols” (Molecules, 2021).
Where two headings read alike, the source gives them in different places.

Legend:
[1] = test system: human; conditions: ref Material Safety Data Sheet (MSDS); cited from earlier work
[2] = test system: Mouse; conditions: cited from earlier work
[3] = test system: porcine pancreatic α-amylase; experiment: α-Amylase inhibition assay; format: biochemical; conditions: ratio of IC50 values versus EGCG
porcine pancreatic α-amylase, sequence (P06278 30-512): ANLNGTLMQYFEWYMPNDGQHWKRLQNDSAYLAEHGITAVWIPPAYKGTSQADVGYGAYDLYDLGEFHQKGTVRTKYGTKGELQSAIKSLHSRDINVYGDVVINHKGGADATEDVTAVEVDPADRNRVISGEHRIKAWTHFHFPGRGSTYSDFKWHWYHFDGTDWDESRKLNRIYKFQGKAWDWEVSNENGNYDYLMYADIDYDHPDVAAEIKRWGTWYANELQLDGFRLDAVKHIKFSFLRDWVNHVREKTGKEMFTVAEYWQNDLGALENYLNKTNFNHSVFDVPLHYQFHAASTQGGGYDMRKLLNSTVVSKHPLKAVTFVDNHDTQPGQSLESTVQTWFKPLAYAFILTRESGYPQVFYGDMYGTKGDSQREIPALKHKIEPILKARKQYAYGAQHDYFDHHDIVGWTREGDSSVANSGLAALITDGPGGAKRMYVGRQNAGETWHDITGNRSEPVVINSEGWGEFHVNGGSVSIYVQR
Procedure: (§1) All of the other solvents and chemicals used were obtained from Sinopharm Group Chemical Reagent Co., Ltd. (Shanghai, China) and were of analytical grade. Sodium phosphate buffer (PBS) was purchased from Solarbio Co. (Beijing, China) and was prepared to make a concentration of 0.01 M aqueous solution (pH 7.2).

[4] = Solubility in PBS; format: physicochemical
Description: (§2) Since the intestine system is alkalescent, it is necessary to assess the stability of EGCG and PEGCG under this condition.

[5] = pH stability in alkalescent condition (HPLC); format: physicochemical; conditions: ethanol/PBS 80:20, pH 7.2, 37 °C, open air, 1.3 mM
Procedure: as §2
Equivalent molar concentrations (1.3 mM) of EGCG and PEGCG were incubated in Pyrex test tubes (20 × 1.6 cm, i.d.) in the open air at 37 °C, respectively, without any agitation. Aliquots (20 µL) of the incubation solution was periodically (1, 2, 5 h) sampled and subjected to HPLC analysis, respectively. HPLC condition was the same as Item 2.5.

[6] = biological target: T1, α-glucosidase (Saccharomyces cerevisiae, UniProt P53341); experiment: α-Glucosidase inhibition assay (PNPG substrate); format: biochemical
T1 construct: purchased Sinopharm Group Chemical Reagent Co. (Shanghai, China)
T1 sequence (P53341 whole entry): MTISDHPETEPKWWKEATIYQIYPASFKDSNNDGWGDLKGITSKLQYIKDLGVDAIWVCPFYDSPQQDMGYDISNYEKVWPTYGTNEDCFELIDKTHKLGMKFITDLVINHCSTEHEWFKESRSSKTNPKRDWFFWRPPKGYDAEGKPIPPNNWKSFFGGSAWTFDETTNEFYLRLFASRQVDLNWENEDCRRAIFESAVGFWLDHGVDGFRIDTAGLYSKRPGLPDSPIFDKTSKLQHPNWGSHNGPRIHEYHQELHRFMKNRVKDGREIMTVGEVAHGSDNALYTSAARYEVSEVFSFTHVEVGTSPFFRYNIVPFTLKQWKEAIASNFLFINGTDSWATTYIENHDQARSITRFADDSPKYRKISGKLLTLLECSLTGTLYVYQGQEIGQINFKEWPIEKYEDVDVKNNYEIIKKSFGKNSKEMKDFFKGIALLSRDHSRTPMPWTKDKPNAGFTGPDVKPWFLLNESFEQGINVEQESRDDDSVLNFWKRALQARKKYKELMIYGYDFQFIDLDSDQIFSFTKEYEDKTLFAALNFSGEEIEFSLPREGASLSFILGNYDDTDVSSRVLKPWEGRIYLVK
Procedure: as §1
The activity of α-glucosidase was determined in a 96-well plate based on 4-Nitrophenyl […]-D-glucopyranoside (PNPG) as a substrate.

[7] = Storage stability of powder in open air; format: physicochemical; conditions: room temperature, 60 d
Description: To study the storage stability of EGCG and PEGCG powder, […] of the two powders were kept in the open air at room temperature, respectively. After 60 days, aliquots of the two powders were sampled and subjected to HPLC analysis, respectively. The HPLC condition was the same as Item 2.5.

[8] = Thermal stability (TG analysis); format: physicochemical; conditions: 30 to 400 °C, 10 °C/min, nitrogen
Procedure: The thermal stability behaviors of EGCG and PEGCG were investigated on a TG apparatus (SDT […], TA Instruments, New Castle, DE, USA). About 3.0 mg of each sample was used to perform the analysis by putting the powder on a TG pan. The sample was scanned from 30 to 400 °C with a heating rate of 10 °C/min under a nitrogen atmosphere.

[9] = set-up: method as in PMID 9177723; conditions: rats, 56 mg of EGCG orally; cited from earlier work
[10] = set-up: method as in PMID 16302765, PMID 12499265; conditions: sodium phosphate buffer pH 7.4, 3 h; cited from earlier work
[11] = set-up: method as in PMID 9177723; conditions: humans, single oral intake of 97 mg; cited from earlier work
[12] = Mouse, acute toxicity, ref Material Safety Data Sheet (MSDS)

CCN(CC)CC [Triethylamine]
Harm to Human Health [1]: strong irritant to the respiratory tract; after inhaling can cause pulmonary edema or even death | Acute toxicity grade [2, 12]: medium toxicity | LD50 ([2]; mouse, in vivo): 460 mg/kg

O=C([O-])[O-].[Na+].[Na+] [Sodium carbonate]
Harm to Human Health [1]: Irritant and corrosive

c1ccncc1 [Pyridine]
Harm to Human Health [1]: Strong irritant; anesthetizes the central nervous system | Acute toxicity grade ([2]; mouse, in vivo): LD50 1580 mg/kg, mild toxicity | LD50 ([2]; mouse, in vivo): LD50 1580 mg/kg, mild toxicity

CCCCCCCCCCCCCCCC(=O)Oc1c(O)cc([C@H]2Oc3cc(O)cc(O)c3C[C@H]2OC(=O)c2cc(O)c(O)c(O)c2)cc1O [PEGCG, 4′-O-palmitoyl EGCG]
α-amylase inhibitory activity relative to EGCG [3]: 4.5 times | solubility in PBS [4]: insoluble in PBS | degraded / hydrolyzed after 1 h [5]: most of the PEGCG was hydrolyzed to EGCG and its dimers | degraded / hydrolyzed after 5 h [5]: 100% | IC50 ([6]; 37 °C, PNPG substrate, read-out: IC50 for α-Glucosidase): 0.22 ± 0.03 µM | α-glucosidase inhibitory activity relative to EGCG ([6]; ratio of IC50 values versus EGCG): 52 times | α-glucosidase inhibitory activity relative to acarbose ([6]; ratio of IC50 values versus acarbose): 0.68 times | remained after storage [7]: 78% | thermal decomposition temperature [8]: 311.19 °C

CN(C)c1ccncc1 [4-dimethylaminopyridine (DMAP), 4-dimethylaminopyridine]
Harm to Human Health [1]: Irritating to the eyes; eating poisonous | Acute toxicity grade [2, 12]: LD50 250 mg/kg, medium toxicity

O=C(O[C@@H]1Cc2c(O)cc(O)cc2O[C@@H]1c1cc(O)c(O)c(O)c1)c1cc(O)c(O)c(O)c1 [EGCG, (−)-Epigallocatechin gallate]
absorbed after oral dose [9]: 0.01% | EGCG lost [10]: 90% | degraded / hydrolyzed after 1 h [5]: 93% | degraded / hydrolyzed after 5 h [5]: utterly degraded | IC50 [6]: 11.5 ± 0.02 µM | remained after storage [7]: 45% | thermal decomposition temperature [8]: 234.5 °C | absorbed after oral dose [11]: 0.32%

CC(=O)[O-].[Na+] [Sodium acetate]
Harm to Human Health [1]: None | Acute toxicity grade ([2]; mouse, in vivo): LD50 25,956 mg/kg, non-toxic | LD50 ([2]; mouse, in vivo): LD50 25,956 mg/kg, non-toxic
